Literature values as cited in publication PMC2984425, “Safety and pharmacokinetics of novel selective vascular endothelial growth factor receptor-2 inhibitor YN968D1 in patients with advanced malignancies” (BMC Cancer, 2010).

Legend:
[1] = tested on: advanced refractory solid tumors; conditions: pooled analysis of 137 patients from 4 phase I trials; cited from earlier work
renal cell carcinoma = tested on: renal cell carcinoma; design: method as in PMID 17215529; conditions: first-line treatment for renal cell carcinoma; cited from earlier work
colorectal cancer = tested on: colorectal cancer; design: method as in PMID 17947727; conditions: 84 patients with colorectal cancer, monotherapy; cited from earlier work
[2] = tested on: metastatic gastric cancer; design: method as in ref 16 = [16]; Moehler M Hartmann JT Lordick F Al-Batran S Reimer P Trarbach T Ebert M Daum S Weihrauch M Galle PR AIO Upper GI Group Sunitinib in patients with chemo-refractory metastatic gastric cancer: Preliminar; conditions: of 52 patients, chemo-refractory metastatic gastric cancer; cited from earlier work

| SMILES | PR, % of patients [1] [%] | evaluable patients who achieved PR [1] | patients who had SD [1] | patients with signs of disease progression by radiological imaging [1] [%] | progression-free survival (PFS) (renal cell carcinoma) [months] | response rate (renal cell carcinoma) [%] | patients who achieved PR (colorectal cancer) | patients with stable disease (colorectal cancer) | patients who showed tumor control [2] |
| --- | --- | --- | --- | --- | --- | --- | --- | --- | --- |
| CNC(=O)c1cc(Oc2ccc(NC(=O)Nc3ccc(Cl)c(C(F)(F)F)c3)cc2)ccn1 [sorafenib] | 1.4 | 2 | 38 | 70.8 |  |  |  |  |  |
| CCN(CC)CCNC(=O)c1c(C)[nH]c(/C=C2\C(=O)Nc3ccc(F)cc32)c1C [sunitinib] |  |  |  |  | 11 | 31 | 1 | 13 | 5 |
